# Measurements reported in patent US7074770B1, “Method of DNA vaccination” (SmithKline Beecham Corporation, priority 1998, dated 2006).
# “Also recorded” adds a separate entry of the source. Like-named read-outs stand apart in the source and are kept apart here.
# B1: GM-CSF: GM-CSF given as adjuvant with DNA immunisation (protein, UniProt P01587 18-141, looked up)
# Granulocyte-macrophage …: APTRSPITVTRPWKHVEAIKEALNLLDDMPVTLNEEVEVVSNEFSFKKLTCVQTRLKIFEQGLRGNFTKLKGALNMTASYYQTYCPPTPETDCETQVTTYADFIDSLKTFLTDIPFECKKPGQK
# Experiments:
# [1] = test system: EL4 cells pulsed with H-2 Db-restricted NP peptide; assay: Lytic CTL response after gene gun NP DNA immunisation (europium release); format: in vivo, C57Bl/6 mice; conditions: gene gun NP plasmid 10 ng; tucaresol s.c. 1 mg or oral 15 mg/kg x5 days; FIG. 9
# Experimental: C57B1/6 mice were immunised with plasmid DNA encoding the influenza virus nucleoprotein with or without tucaresol given subcutaneously (FIG. 9a) or orally (FIG. 9b). Splenocytes were restimulated in-vitro with A/PR8/34 virus. Standard europium release techniques were used to determine specific lysis of MHC matched target cells pulsed with H-2 D^b-restricted NP peptide.
# C57BI/6 mice were immunised with plasmid DNA (10 ng) encoding the influenza virus nucleoprotein (NP) with and without tucaresol given sub-cutaneously (sc). Mice were killed 14 days post-immunisation and restimulated in-vitro (5 days) with irradiated splenocytes pulsed with virus (A/PR8/34). Standard europium release techniques were used to determine specific lysis of MHC-matched target cells (EL4 cells) pulsed with H-2 D^b-restricted NP peptide. Non-specific lysis was less than 15% for all controls. Tucaresol was given subcutaneously (1 mg) at the site of intrepidermal gene-gun immunisation.
# C57B1/6 mice were immunised with plasmid DNA (10 ng) encoding the influenza virus nucleoprotein (NP) with and without tucaresol given orally. Mice were killed 14 days post-immunisation and restimulated in-vitro (5 days) with irradiated splenocytes pulsed with virus (A/PR8/34). Standard europium release techniques were used to determine specific lysis of EL4 cells pulsed with H-2D^b-restricted NP peptide. […]
# [2] = test system: splenocytes re-stimulated with NP peptide; format: in vivo, C57BL/6 mice; conditions: pVAC1.PR gene gun
# [3] = test system: mycobacterial hsp65 (M.hsp65); format: in vivo, mice
# S6C-E4 tumour cells = assay: Tumour outgrowth inhibition in vivo after EBNA-4 plasmid immunisation; parameters: species or system ACA mice; conditions: i.m. 40 μg E4 x3, tucaresol 200 μg s.c. days 1-4; challenge with S6C-E4 s.c.; FIG. 7
# Experimental: Groups of ACA mice were immunised three times with p3, E4 or E4,T, and were subsequently challenged with […] S6C tumour cells. Mice were sacrificed when tumour diameter reached 20 mm.
# Epstein Barr virus has been implicated in some cancers. We analysed the effect of tucaresol on tumour outgrowth inhibition in vivo as a result of pDNA vaccination with a plasmid expressing EBNA-4 (FIG. 7). Mice were immunised by intramuscular injection with 40 μg of either control mock plasmid pCDNA3 (P3), plasmid expressing EBNA-4 (E4) or plasmid expressing EBNA-4 followed 1, 2, 3 and 4 days later with administration of 200 μg of tucaresol s.c.—i.e. 800 μg total tucaresol per mouse (E4T). This immunisation schedule was repeated 1 month and 2 months after the initial immunisation. Two weeks after the last immunisation mice were challenged with […] S6C-E4 tumour cells s.c. Mice were sacrificed when the tumour reached a 20 mm diameter.
# [4] = test system: Jk-A2/kb target cells pulsed with M.hsp65 peptide; format: in vivo, HLA A2 transgenic mice
# CD4 Th-cells = conditions: previously reported (22); cited from earlier work
# [5] = test system: lymph node T cells (response to ovalbumin peptide); assay: T-cell priming after gene gun DNA immunisation (pVAC1.Ova) with conventional adjuvants; format: in vivo, mice; conditions: gene gun pVAC1.Ova with or without adjuvants given s.c.; 3 days later
# Text: Proliferation of lymph node T cells in response to pDNA or DNA encoding ovalbumin (PVAC1.Ova) in isolation and in combination with adjuvants LPS, CFA, GM-CSF and Heat-Killed Listeria monocytogenes (HKLM).
# Lymphoid cells from TCR-transgenic mice, expressing a receptor specific for an ovalbumin antigen were transferred into normal syngeneic mice. These mice were then immunised subcutaneously (by means of gene gun) with plasmid DNA (pVAC1) or with plasmid DNA construct encoding ovalbumin (pVAC1.Ova) with or without adjuvants given subcutaneously. Three days later, regional lymph node cells were removed and their proliferative response to ovalbumin peptide was measured by means of incorporation of tritiated thymidine into DNA. This provides a measure of the degree of specific T-cell priming that occurred in vivo in response to immunisation. […] However, in contrast to the conventional peptide immunisation, none of the adjuvants were able to enhance this response to DNA immunisation.
Molecule,lytic CTL response (specific lysis) [1],CTL cytokine response (IFNγ positive cells per 10e6 splenocytes) ([2]; tucaresol oral gavage 15 mg/kg daily for 5 days),CTL cytokine response (IFNγ positive cells per 10e6 splenocytes) ([2]; tucaresol s.c. 2×1 mg at site of DNA vaccination),IgG2a anti-M.hsp65 antibody response (Th1 associated) ([3]; FIG. 3b),"IgG1 anti-M.hsp65 antibody response (Th2 associated) ([3]; compared to p3 immunised mice, FIG. 3c)","specific antibody response with control plasmid ([3]; control plasmid p3 and tucaresol (p3, T))","anti-M.hsp65 antibody (IgG) titres ([3]; i.m. 20 μg p3M.65, tucaresol 1 mg s.c. simultaneously or cytokine plasmids equimolar, FIG. 3a)",tumour outgrowth inhibition (S6C-E4 tumour cells),"CTL activity against target cells pulsed with the cognate M.hsp65 epitope ([4]; immunised twice, splenocytes stimulated with peptide, FIG. 6)","lytic activity against Jk-A2/kb cells unpulsed or pulsed with control influenza peptide ([4]; mouse, in vivo)",CD4 Th-cell response (CD4 Th-cells),T-cell priming in response to DNA immunisation [5]
"O=Cc1c(O)cccc1OCc1ccc(C(=O)O)cc1 [tucaresol, 4-(2-formyl-3-hydroxyphenoxymethyl)benzoic acid]",Enhances,doubling of the response,small but significant increase,significantly (P=0.003) increased; also recorded: strongly enhanced,did also induce,no increase in the specific antibody response,markedly increased; also recorded: comparable to the effect of the GM-CSF plasmid,significantly enhances; also recorded: markedly enhanced,high CTL activity; also recorded: markedly enhanced,much lower,"enhanced CD4 Th-cell response, selectively favouring a Th 1-type profile over Th 2",–
B1,–,–,–,–,–,–,–,–,–,–,–,failed to enhance the response
